Experimental data from ChEMBL document CHEMBL1201862, “PubChem BioAssay data set” (2004).
Calls of active or inactive are those of the source.

Tests used:
[1] = target: T1, Sentrin-specific protease 8 (Homo sapiens, UniProt Q96LD8); type: functional
T1 sequence (Q96LD8 whole entry): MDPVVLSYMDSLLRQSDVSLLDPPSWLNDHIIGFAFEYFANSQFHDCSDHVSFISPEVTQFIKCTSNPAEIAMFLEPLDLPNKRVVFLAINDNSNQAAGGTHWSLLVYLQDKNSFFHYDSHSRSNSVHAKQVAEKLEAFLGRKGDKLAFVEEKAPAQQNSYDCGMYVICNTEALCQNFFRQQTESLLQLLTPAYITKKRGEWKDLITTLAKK

[2] = target: T1, Sentrin-specific protease 8; type: functional; remark: listed apart in the source
[3] = viability loss in HEK293T cells – cell-based, cherry-picks, cytotoxicity control for HIV Vif inhibitor project, dose response (AID 652208); type: functional
[4] = target: ADP-ribosylation factor GTPase-activating protein 1 (Rattus norvegicus, UniProt Q62848); test: Fluorescence polarization-based biochemical high throughput dose response screening assay to identify inhibitors of ADP-ribosylation factor GTPase activating protein 1 (ARFGAP1).; type: functional
[5] = target: Nuclear receptor subfamily 5 group A member 2 (Homo sapiens, UniProt O00482); type: functional, cell-based;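 further: HEK293T cells transfected with LRH-1 and a StAR promoter luciferase reporter; potency for inhibitors that lower LRH-1 driven reporter light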
[6] = nonselective StAR promoter luciferase inhibitors – cell-based, luminescence, luciferase reporter, counter-screen for LRH-1 inverse agonist project, dose response (AID 651969); type: functional
Steroidogenic factor 1 = Steroidogenic factor 1 (Homo sapiens, UniProt Q13285); test: Counterscreen for inverse agonists of the liver receptor homolog-1 (LRH-1; NR5A2): Luminescence-based cell-based high throughput dose response assay to identify inverse agonists of the Steroidogenic Factor 1 Nuclear Receptor (SF1; NR5A1).; type: functional
Albumin = Albumin (Bos taurus, UniProt P02769); test: Counterscreen for inhibitors of T-cell receptor (TCR)-CD3 interaction: Fluorescence-based biochemical high throughput dose response assay to identify inhibitors of T-cell receptor (TCR)-CD3 interaction using a TAMRA-labeled BSA probe.; type: functional
[7] = target: T2, Intestinal-type alkaline phosphatase (Homo sapiens, UniProt P09923); test: activation of human intestinal alkaline phosphatase – biochemical, luminescent, uHTS hits, set 2, dose response (AID 488817); type: functional;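 further: potency of activators that raise enzyme activity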
[8] = target: Intestinal-type alkaline phosphatase (Mus musculus, UniProt P24822); test: PubChem AID 488875; type: functional
[9] = target: T2, Intestinal-type alkaline phosphatase; test: human intestinal alkaline phosphatase activators, dose response, biochemical, luminescence, uHTS hits (AID 463120); type: functional
[10] = target: T3, Alkaline phosphatase, tissue-nonspecific isozyme (Homo sapiens, UniProt P05186); test: activation of tissue-nonspecific alkaline phosphatase – biochemical, TNAP isozyme, human IAP uHTS hits, selectivity assay for human IAP activator project, dose response (AID 488886); type: functional;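 further: potency of compounds raising TNAP activity as a selectivity check on IAP activators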
T3 sequence (P05186 whole entry): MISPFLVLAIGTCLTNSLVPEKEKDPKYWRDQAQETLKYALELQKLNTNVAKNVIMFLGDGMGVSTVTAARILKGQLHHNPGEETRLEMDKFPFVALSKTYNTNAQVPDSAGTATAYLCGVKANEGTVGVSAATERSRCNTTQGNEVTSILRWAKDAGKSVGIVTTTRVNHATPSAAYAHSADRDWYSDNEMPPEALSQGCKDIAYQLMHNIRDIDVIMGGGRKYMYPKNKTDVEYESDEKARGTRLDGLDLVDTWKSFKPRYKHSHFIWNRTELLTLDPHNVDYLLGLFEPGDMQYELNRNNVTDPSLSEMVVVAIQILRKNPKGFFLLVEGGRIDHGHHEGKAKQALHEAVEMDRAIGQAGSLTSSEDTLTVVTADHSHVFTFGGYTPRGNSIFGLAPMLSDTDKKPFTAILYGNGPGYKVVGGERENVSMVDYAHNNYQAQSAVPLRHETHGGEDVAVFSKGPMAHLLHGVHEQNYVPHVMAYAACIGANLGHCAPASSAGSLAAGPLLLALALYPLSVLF

Galanin receptor type 3 = Galanin receptor type 3 (Homo sapiens, UniProt O60755); test: Fluorescence-based cell-based primary high throughput dose response assay to identify antagonists of the Galanin Receptor 3 (GalR3).; type: functional
cells = type: functional, cell-based; conditions: HEK-CNG
Beta Lactamase [11] = target: T4, Beta Lactamase (Pseudomonas aeruginosa, UniProt Q932Y6); test: Ki and modality of VIM-2 inhibitors – biochemical, probe results, mechanism study, late-stage follow-up, panel member Nitrocefin-based IMP1 Inhibition Counterscreen (AID 2128)
Beta Lactamase [12] = target: T4, Beta Lactamase; test: Ki and modality of VIM-2 inhibitors – biochemical, probe results, mechanism study, late-stage follow-up, panel member Nitrocefin-based VIM2 Inhibition Assay (AID 2128)
Beta-lactamase [13] = target: T5, Beta-lactamase (Pseudomonas aeruginosa, UniProt Q79MP6); test: inhibition of IMP-1 beta-lactamase activity – biochemical, epi-absorbance, selectivity assay for VIM-2 inhibitor project, dose response (AID 1920)
Beta-lactamase [14] = target: T5, Beta-lactamase; test: […] counterscreen for selective VIM-2 inhibitors: dose response biochemical high throughput screening assay to identify inhibitors of IMP-1 metallo-beta-lactamase.
Beta-lactamase [15] = target: T6, Beta-lactamase (Salmonella choleraesuis (strain SC-B67), UniProt Q5J463); test: Late stage results from the probe development efforts to identify selective inhibitors of VIM-2 metallo-beta-lactamase: probe results. Panel member name: Nitrocefin-based TEM-1 Inhibition Counterscreen
Beta-lactamase [16] = target: T6, Beta-lactamase; test: Epi-absorbance-based counterscreen for selective VIM-2 inhibitors: dose response biochemical high throughput screening assay to identify inhibitors of TEM-1 serine-beta-lactamase.

T5 sequence (Q79MP6 whole entry): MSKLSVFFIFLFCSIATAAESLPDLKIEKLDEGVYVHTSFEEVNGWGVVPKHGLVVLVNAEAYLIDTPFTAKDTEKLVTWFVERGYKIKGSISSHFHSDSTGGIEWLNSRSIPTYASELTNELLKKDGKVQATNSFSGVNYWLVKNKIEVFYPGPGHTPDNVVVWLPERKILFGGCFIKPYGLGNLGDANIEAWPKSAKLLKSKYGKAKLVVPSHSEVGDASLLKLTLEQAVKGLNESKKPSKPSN
T6 sequence (Q5J463 whole entry): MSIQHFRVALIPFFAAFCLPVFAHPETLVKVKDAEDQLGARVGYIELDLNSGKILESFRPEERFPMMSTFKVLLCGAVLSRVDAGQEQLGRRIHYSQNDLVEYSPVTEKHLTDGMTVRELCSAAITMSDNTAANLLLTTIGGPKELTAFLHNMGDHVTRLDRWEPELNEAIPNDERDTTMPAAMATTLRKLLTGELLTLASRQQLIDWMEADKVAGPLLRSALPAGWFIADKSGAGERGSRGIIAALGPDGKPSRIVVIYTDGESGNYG
T2 sequence (P09923 whole entry): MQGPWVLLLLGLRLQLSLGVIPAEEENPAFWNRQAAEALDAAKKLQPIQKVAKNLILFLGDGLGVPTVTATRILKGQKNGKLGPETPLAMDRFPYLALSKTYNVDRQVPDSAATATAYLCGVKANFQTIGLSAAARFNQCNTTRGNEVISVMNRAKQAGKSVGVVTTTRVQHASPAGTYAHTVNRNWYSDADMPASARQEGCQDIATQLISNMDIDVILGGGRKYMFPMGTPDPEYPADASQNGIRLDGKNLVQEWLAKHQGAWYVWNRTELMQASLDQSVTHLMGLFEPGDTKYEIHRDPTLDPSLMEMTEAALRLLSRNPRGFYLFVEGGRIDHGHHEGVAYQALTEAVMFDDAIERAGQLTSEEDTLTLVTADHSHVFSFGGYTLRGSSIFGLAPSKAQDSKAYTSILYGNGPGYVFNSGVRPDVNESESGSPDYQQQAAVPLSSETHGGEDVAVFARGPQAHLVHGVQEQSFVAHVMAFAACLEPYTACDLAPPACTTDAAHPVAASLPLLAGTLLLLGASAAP
T4 sequence (Q932Y6 whole entry): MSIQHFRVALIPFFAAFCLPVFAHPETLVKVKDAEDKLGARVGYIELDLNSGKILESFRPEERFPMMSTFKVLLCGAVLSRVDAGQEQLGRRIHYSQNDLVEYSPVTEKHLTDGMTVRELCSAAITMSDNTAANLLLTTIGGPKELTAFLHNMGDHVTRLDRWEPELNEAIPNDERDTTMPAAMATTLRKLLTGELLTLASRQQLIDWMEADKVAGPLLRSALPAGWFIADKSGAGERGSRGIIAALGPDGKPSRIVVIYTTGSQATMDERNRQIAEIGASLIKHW
Chain of Intestinal-type alkaline phosphatase (Mus musculus, UniProt P24822) (P24822 whole entry): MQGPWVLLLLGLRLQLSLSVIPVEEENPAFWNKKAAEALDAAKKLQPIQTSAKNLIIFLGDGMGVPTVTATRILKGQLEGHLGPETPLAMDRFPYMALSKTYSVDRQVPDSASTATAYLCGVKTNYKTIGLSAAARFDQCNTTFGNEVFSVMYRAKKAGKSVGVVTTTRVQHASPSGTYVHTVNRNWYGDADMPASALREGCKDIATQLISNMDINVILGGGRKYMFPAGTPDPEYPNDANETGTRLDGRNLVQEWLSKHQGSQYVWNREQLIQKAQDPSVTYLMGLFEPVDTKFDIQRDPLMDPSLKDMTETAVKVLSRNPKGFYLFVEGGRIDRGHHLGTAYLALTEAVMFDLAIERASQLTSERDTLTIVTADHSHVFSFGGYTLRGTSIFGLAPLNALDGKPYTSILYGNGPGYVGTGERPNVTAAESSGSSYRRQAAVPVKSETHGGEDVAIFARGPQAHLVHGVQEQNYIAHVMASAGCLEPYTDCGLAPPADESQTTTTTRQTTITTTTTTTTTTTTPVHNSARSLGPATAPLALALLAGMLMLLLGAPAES
Chain of Nuclear receptor subfamily 5 group A member 2 (O00482 whole entry): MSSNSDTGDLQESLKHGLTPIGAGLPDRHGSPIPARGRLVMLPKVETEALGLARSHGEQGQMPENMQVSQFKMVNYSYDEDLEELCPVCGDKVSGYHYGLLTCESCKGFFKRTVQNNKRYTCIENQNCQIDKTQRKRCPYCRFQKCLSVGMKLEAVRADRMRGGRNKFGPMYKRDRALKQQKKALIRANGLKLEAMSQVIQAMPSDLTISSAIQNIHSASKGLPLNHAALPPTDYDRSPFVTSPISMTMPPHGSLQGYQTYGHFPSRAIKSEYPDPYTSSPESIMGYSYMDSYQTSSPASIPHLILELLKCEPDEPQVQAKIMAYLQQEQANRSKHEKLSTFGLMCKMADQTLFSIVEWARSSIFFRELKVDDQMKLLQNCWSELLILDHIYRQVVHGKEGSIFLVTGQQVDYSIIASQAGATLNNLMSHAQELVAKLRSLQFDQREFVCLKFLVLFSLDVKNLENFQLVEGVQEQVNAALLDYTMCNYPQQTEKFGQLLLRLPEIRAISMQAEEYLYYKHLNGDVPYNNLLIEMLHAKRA
Chain of Galanin receptor type 3 (O60755 whole entry): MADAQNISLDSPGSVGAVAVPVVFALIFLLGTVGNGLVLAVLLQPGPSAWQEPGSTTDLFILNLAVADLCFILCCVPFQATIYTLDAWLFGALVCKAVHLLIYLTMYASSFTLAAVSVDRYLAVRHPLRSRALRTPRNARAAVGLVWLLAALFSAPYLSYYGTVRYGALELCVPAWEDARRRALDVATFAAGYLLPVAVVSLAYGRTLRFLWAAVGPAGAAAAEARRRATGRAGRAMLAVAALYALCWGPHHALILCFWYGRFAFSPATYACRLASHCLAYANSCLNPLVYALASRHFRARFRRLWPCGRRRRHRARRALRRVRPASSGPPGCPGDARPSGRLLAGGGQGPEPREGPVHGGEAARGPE
Chain of Steroidogenic factor 1 (Q13285 whole entry): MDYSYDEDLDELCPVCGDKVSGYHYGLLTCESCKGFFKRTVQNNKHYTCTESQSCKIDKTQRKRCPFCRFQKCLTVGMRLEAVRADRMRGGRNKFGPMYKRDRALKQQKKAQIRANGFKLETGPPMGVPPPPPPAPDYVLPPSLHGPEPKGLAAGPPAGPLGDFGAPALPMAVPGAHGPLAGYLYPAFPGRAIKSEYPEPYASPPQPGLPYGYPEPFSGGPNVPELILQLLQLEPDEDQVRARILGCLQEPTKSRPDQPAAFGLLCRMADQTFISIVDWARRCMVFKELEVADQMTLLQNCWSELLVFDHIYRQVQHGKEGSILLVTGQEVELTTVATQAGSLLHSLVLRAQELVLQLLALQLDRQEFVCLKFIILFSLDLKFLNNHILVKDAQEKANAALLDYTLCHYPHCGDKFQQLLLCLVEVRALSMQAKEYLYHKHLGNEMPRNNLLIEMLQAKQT
Chain of ADP-ribosylation factor GTPase-activating protein 1 (Q62848 whole entry): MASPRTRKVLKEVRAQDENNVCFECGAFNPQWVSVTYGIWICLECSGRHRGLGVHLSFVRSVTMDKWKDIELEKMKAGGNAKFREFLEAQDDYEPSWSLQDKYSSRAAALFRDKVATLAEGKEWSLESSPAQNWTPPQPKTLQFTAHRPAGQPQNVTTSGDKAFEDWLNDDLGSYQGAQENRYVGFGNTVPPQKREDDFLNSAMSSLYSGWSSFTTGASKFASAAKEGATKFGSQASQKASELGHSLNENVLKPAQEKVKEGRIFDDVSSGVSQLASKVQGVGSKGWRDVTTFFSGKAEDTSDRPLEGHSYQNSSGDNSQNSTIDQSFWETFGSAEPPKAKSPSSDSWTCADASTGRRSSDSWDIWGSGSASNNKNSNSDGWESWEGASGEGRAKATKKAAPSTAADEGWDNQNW
Chain of Albumin (P02769 whole entry): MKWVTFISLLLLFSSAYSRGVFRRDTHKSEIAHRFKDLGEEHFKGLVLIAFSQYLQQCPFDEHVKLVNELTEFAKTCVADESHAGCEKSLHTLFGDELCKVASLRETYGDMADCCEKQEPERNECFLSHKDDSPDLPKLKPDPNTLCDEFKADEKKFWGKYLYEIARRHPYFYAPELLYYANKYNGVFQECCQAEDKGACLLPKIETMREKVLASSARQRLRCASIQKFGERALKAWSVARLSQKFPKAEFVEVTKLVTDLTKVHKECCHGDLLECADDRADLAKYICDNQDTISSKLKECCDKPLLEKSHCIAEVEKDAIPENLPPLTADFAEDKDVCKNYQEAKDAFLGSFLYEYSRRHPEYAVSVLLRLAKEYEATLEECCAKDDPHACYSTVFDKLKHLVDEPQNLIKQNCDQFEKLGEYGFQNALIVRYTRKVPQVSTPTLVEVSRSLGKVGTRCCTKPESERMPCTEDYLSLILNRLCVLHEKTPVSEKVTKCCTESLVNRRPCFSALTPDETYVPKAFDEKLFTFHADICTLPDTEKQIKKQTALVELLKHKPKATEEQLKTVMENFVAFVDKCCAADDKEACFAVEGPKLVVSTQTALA

**Q.** For `O=C(CCS(=O)(=O)Cc1ccccc1F)N1CCc2ccccc2C1`, which IC50 [1] is on record?
**A.** Its IC50 is 7.69 µM (active).

**Q.** What about the IC50 [2] of the same compound?
**A.** The IC50 was > 100 µM (inactive).

**Q.** With `COc1ccc(-n2nc(C(=O)NCC(=O)Nc3cccc(Cl)c3)c3ccccc3c2=O)cc1OC` as the compound, how does the AC50 [3] read?
**A.** The AC50 was 17.4 µM (active).

**Q.** What about the IC50 [4] of the same compound?
**A.** Its IC50 is 83.9 µM (inactive).

**Q.** Which results are given for `O=C(COC(=O)CCN1C(=O)C2CC=CCC2C1=O)NCCc1ccc(F)cc1` (stereo not given)?
**A.** IC50 [5]: 19.1 µM (inactive); IC50 [6]: 35.9 µM (inactive); IC50 (Steroidogenic factor 1): 2.33 µM (active)

**Q.** With `Cc1ccc(NC(=O)NNC(=O)c2cc3ccccc3cc2O)cc1` as the compound, how does the IC50 (Albumin) read?
**A.** Its IC50 is > 94.1 µM (inactive).

**Q.** What about the EC50 [7] of the same compound?
**A.** The EC50 was 14.9 µM (active).

**Q.** And the EC50 [8]?
**A.** Its EC50 is > 100 µM (inactive).

**Q.** What about the EC50 [9] of the same compound?
**A.** Its EC50 is 9.83 µM (active).

**Q.** And the EC50 [10]?
**A.** The EC50 was 13 µM (active).

**Q.** What does the source list for `CC(=O)c1cn(CC(=O)NCCc2c[nH]c3ccccc23)c2ccccc12`?
**A.** IC50 (Galanin receptor type 3): 2.7 µM (active); EC50 (cells): > 29.9 µM (inactive)

**Q.** Which results are given for `O=c1[nH]c2c(s1)C(c1cccnc1)C1C3CCC(C3)C1S2` (stereo not given)?
**A.** IC50 (Beta Lactamase [11]): > 60 µM (inactive); IC50 (Beta Lactamase [12]): 0.223 µM (active); IC50 (Beta-lactamase [13]): > 59.6 µM (inactive); IC50 (Beta-lactamase [14]): > 59.6 µM (inactive); IC50 (Beta-lactamase [15]): > 60 µM (active); IC50 (Beta-lactamase [16]): > 59.6 µM (inactive)
